Reference: PubChem BioAssay AID1645868 (Buhrlage Lab, Dana-Farber Cancer Institute and Novartis …, 2021)
The source made the active and inactive calls.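 Rule for the calls: active = maximal percent inhibition of the deubiquitinase OTUD3 of at least 30% across the tested doses; inactive = the rest.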

Molecular target: OTU domain-containing protein 3 (Homo sapiens) (UniProt Q5T2D3)
Test: Validation of screening hits, potency titration, in vitro enzymatic, OTU domain-containing protein 3 DUB inhibitors (AID 1645868)
Conditions: purified OTUD3, ubiquitin-rhodamine cleavage fluorescence, 2 h

OTU domain-containing protein 3 (Homo sapiens), sequence (Q5T2D3 whole entry, looked up, the tested form may be a part): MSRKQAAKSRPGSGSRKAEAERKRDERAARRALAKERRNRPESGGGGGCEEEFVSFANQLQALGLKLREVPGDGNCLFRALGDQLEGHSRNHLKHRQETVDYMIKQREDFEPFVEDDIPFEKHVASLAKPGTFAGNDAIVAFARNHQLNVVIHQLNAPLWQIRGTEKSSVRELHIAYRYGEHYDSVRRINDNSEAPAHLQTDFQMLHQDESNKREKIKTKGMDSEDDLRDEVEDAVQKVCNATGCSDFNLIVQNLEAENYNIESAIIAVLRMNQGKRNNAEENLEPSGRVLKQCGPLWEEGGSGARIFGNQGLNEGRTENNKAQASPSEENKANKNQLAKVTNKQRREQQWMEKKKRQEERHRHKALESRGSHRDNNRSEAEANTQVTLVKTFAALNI

SMILES	IC50
Cc1nc(-c2noc3ccc(C(=O)Nc4cccnc4)cc23)cs1	42.4 µM
Cc1ccc(C)c(Cn2nnc3c(=O)[nH]c(C4CCN(S(=O)(=O)c5ccc(S(=O)(=O)NC6CC6)cc5)CC4)nc32)c1	35.1 µM
COc1ccccc1NC(=O)Cn1cc(C(=O)c2ccc(C)cc2)c(=O)c2ccccc21	39.5 µM
Cc1ccc(-c2csc(-n3ncc(C(=O)N4CCN(C(=O)Nc5cccc6ccccc56)C(C)C4)c3C(C)C)n2)cc1 (configuration not stated)	> 50 µM (inactive)
Cc1ccc(C(=O)Nc2ccc3nccnc3c2)cc1	> 50 µM (inactive)
COc1ccccc1-c1ccc(CN2[C@@H](c3ccccc3)C[C@@H]3NC(=O)CCC[C@H]32)cc1	> 50 µM (inactive)
O=C(Nc1ccccc1)c1nc2c(s1)CCN(C(=O)c1ccccc1)CC2	> 50 µM (inactive)
O=C1c2ccccc2NC2(C(=O)Nc3ccc(Br)cc32)N1c1ccccc1 (configuration not stated)	> 50 µM (inactive)
C=C(NC(=O)C(=C)NC(=O)c1csc(-c2ccc3c(n2)-c2csc(n2)-c2csc(n2)C(C(C)C2CO2)NC(=O)C(Cc2ccc(O)cc2)NC(=O)c2csc(n2)C(C(O)c2ccccc2)NC(=O)c2nc(sc2C)C(CC(N)=O)NC(=O)c2csc-3n2)n1)C(=O)O (configuration not stated)	43.6 µM
CC1CCN(S(=O)(=O)c2ccc(C(=O)Nc3ccc(S(N)(=O)=O)cc3)cc2)CC1	> 50 µM (inactive)
Cc1ccc(N=Cc2sc(O)c3ccccc23)c(C)c1	> 50 µM (inactive)
CC(C)NC(=O)Cn1ccn2nc(-c3ccc(Cl)cc3)cc2c1=O	> 50 µM (inactive)
O=S(=O)(c1cccc(F)c1)N1CCN(c2nnnn2-c2ccccc2)CC1	> 50 µM (inactive)
COc1ccccc1CNC(=O)c1ccc(CSc2nc3ccncc3n2Cc2ccccc2)cc1	> 50 µM (inactive)
CSc1cccc(NC(=O)CCc2ccc3nc(NC(C)=O)sc3c2)c1	> 50 µM (inactive)
Cn1ccnc1CN1C[C@H]2CCN(c3ncccn3)C[C@H]2C1	> 50 µM (inactive)
CCn1cc2c(n1)c(=O)n(Cc1ccccc1)c(=O)n2CC(=O)Nc1ccc(OC)cc1	12.1 µM
CCCCCCCCCC(CCCCCCCCCC(=O)O)O[C@H]1O[C@@H](COC(C)=O)[C@H](O)[C@@H](O)[C@H]1OC(=O)CC(=O)O (some centres not stated)	22.5 µM
Cc1ccccc1NC(=O)c1ccc(N2CCCCC2)nn1	> 50 µM (inactive)
CCOc1ccc2c(c1)c(=O)c(C(=O)c1ccccc1)cn2CC(=O)Nc1ccc2c(c1)OCCO2	43 µM
Cc1cc(C)cc(N(CCC(=O)Nc2ccc(N3CCOCC3)cc2)S(=O)(=O)c2ccc(Cl)cc2)c1	19.7 µM
O=c1c(OC2O[C@H](CO)[C@H](O)[C@H](O)[C@H]2O)c(-c2ccc(O)cc2)oc2cc(O)cc(O)c12 (some centres not stated)	49.9 µM

SMILES	IC50
Cc1ccc(C(=O)c2cn(CC(=O)Nc3ccccc3)c3ccc(C)cc3c2=O)cc1	21.1 µM
Cn1cc2cccc(NC(=O)c3ccc(F)cc3)c2n1	> 50 µM (inactive)
CCOc1ccc2cc3c(nc2c1)OC(=O)N(Cc1ccc(C)o1)C3	> 50 µM (inactive)
CC(CCc1ccccc1)NC(=O)Cn1c(=O)c2cccn2c2ccccc21 (configuration not stated)	33.5 µM
COC(=O)c1cc(C#N)c(NCc2ccccc2)nc1C	> 50 µM (inactive)
O=C(NCC(c1cccnc1)N1CCc2ccccc2C1)C(=O)Nc1ccc2c(c1)OCO2 (configuration not stated)	37.7 µM
Cc1ccccc1C(=O)Nc1ccc(Cc2ccc(NC(=O)c3ccccc3C)c(O)c2)cc1O	> 50 µM (inactive)
Cc1nn(-c2ccccc2)c(C)c1C(=O)OCC(=O)Nc1cccc(C#N)c1	> 50 µM (inactive)
CC1CC[C@]2(NC1)O[C@H]1C[C@H]3[C@@H]4CC[C@H]5C[C@@H](O[C@@H]6O[C@H](CO)[C@H](O[C@@H]7O[C@H](CO)[C@@H](O)[C@H](O[C@@H]8OC[C@@H](O)[C@H](O)[C@H]8O)[C@H]7O[C@@H]7O[C@H](CO)[C@@H](O)[C@H](O)[C@H]7O)[C@H](O)[C@H]6O)CC[C@]5(C)[C@H]4CC[C@]3(C)[C@H]1[C@@H]2C (some centres not stated)	> 50 µM (inactive)
Cc1c(C(=O)Nc2ccc(-c3nnc4n3CCCCC4)cc2)oc2c1ccc1ccccc12	> 50 µM (inactive)
O=C(Nc1ccc(Cl)cc1F)c1cc(-c2ccccn2)n[nH]1	> 50 µM (inactive)
COc1ccc(C2CC(c3ccccc3)N(C(=O)C3CC3)c3ncnn32)cc1 (configuration not stated)	> 50 µM (inactive)
O=C(CCCn1c(=O)c2ccccc2n(CC(=O)NCc2ccccc2Cl)c1=O)NCc1ccc2c(c1)OCO2	3.31 µM
O=C(Nc1ccncc1)c1ncoc1-c1cccc(Cl)c1	> 50 µM (inactive)
COc1cccc(C(=O)Oc2ccc3c(=O)c(-c4ccc(OC)c(OC)c4)coc3c2)c1	> 50 µM (inactive)
O=C(COc1nc2ccccc2nc1N1CCOCC1)Nc1cccc(S(=O)(=O)N2CCCCC2)c1	> 50 µM (inactive)
Cc1cccc(NC(=O)Cn2c(N3CCOCC3)nc3cc(C)n(C)c3c2=O)c1	40.6 µM
COc1cc(NC(=O)Cn2nc(-c3ccc(F)cc3)ccc2=O)ccc1-n1cnnn1	5.56 µM
NS(=O)(=O)c1cc(C(=O)OCC(=O)NC2CCCc3ccccc32)ccc1Cl (configuration not stated)	49 µM
CCCC(=O)c1c[nH]c(C(=O)NCc2ccc(F)cc2)c1	32.9 µM
CCC/C=C\C#CC/C=C\CCCCCCCC(=O)O	1.37 µM
CCC1(C)Cc2c(sc3nc(SCC(=O)Nc4ccc(C(C)=O)cc4)nc(N)c23)CO1 (configuration not stated)	32.4 µM

The remaining lines, values ahead:

IC50	SMILES
> 50 µM (inactive)	COc1cccc2c1OCC(NS(=O)(=O)c1cc(C)ccc1C)C2 (configuration not stated)
25.5 µM	O=C1C=C(O)c2c(O)cccc2C1=O
> 50 µM (inactive)	Cc1cc(C(F)(F)F)n2nc(C3CCN(C(=O)c4cnn(C)c4C)C3)cc2n1 (configuration not stated)
35.4 µM	CCC(C)NC(=O)Cn1c(=O)n(-c2ccccc2)c(=O)c2ccc(C(=O)NCc3ccco3)cc21 (configuration not stated)
> 50 µM (inactive)	Cc1ccc2nc(N3CCc4ccccc4C3)c3nncn3c2c1
> 50 µM (inactive)	Cc1c(OCC(=O)NCC(=O)N2CCC3(O)CCCCC3C2)ccc2c3c(c(=O)oc12)CCCC3 (configuration not stated)
> 50 µM (inactive)	Cc1ccc2c(=O)c(C(=O)Nc3ccccc3)cn(CC(=O)NC3CCCCC3)c2n1
> 50 µM (inactive)	O=C(CN(Cc1ccc(Cl)cc1)S(=O)(=O)c1ccc(Cl)cc1)N1CCOCC1
20.1 µM	COc1cccc(NC(=O)C2Cc3ccccc3N2C(=O)c2ccccc2)c1 (configuration not stated)
> 50 µM (inactive)	COc1cc(-c2cc(C(=O)Nc3cc(C)[nH]n3)c3ccccc3n2)cc(OC)c1OC
49.8 µM	O=C(CSc1nc2ccncc2[nH]1)Nc1ccc(Br)cc1F
> 50 µM (inactive)	N#Cc1c(-c2ccccc2)ccn(Cc2cccc(C(F)(F)F)c2)c1=O
> 50 µM (inactive)	Cc1ccc(NC(=O)c2ccn(COc3ccc(F)cc3)n2)nc1
> 50 µM (inactive)	Cc1cccc(NC(=O)c2nc(N3CCSCC3)c3cnn(C)c3n2)c1
> 50 µM (inactive)	CC1CCN(S(=O)(=O)c2ccc3[nH]cc(C(=O)NCc4ccco4)c(=O)c3c2)CC1
6.75 µM	CC1(C)Cc2c(sc3nc(Cc4ccccc4)nc(SCC(=O)Nc4ccccc4)c23)CO1
> 50 µM (inactive)	O=C(Cn1c(=O)n(Cc2ccc(F)cc2)c(=O)c2ncccc21)Nc1ccccc1
> 50 µM (inactive)	CN1C(=O)c2cc(NC(=O)c3ccccc3Cl)ccc2Oc2ccccc21
15.2 µM	Cn1c(=O)sc2cc(NC(=O)c3ccc(Br)cc3)ccc21
5.01 µM	O=C(Nc1ccc(-c2cn3ccsc3n2)cc1)c1ccc(Cl)c([N+](=O)[O-])c1
> 50 µM (inactive)	COc1ccc(C(=O)NCC(c2ccc3c(c2)CCCN3C)N2CCCC2)cc1 (configuration not stated)
> 50 µM (inactive)	COc1ccc(C(=O)Nc2sc3c(c2C(=O)NCc2cccnc2)CCCC3)cc1
> 50 µM (inactive)	Cc1cc(=O)n(C)c2c(O)c3c(cc12)c(C)cc(=O)n3C
> 50 µM (inactive)	CCN(C(=O)c1cc2c(s1)-c1ccccc1OC2)c1ccccc1F

IC50	SMILES
> 50 µM (inactive)	COc1ccc(CCC(=O)Nc2ccc3c(c2)Sc2ncccc2C(=O)N3C)cc1
> 50 µM (inactive)	Cn1nc(-c2nc(-c3ccccc3)no2)c2c1CCN(C(=O)C1CC1)C2
> 50 µM (inactive)	COc1ccc(-c2cc3nc(C)cc(Nc4ccc(F)cc4)n3n2)cc1OC
> 50 µM (inactive)	Cc1cccc(NC(=O)c2noc3c2CCc2sccc2-3)n1
4.1 µM	O=C(Nc1ccccc1-c1nc2ccccc2[nH]1)c1sc2ccccc2c1Cl
> 50 µM (inactive)	CCOC(=O)c1cnc(C(F)(F)F)nc1Sc1n[nH]c(-c2cccs2)n1
> 50 µM (inactive)	COc1ccc(NC(=O)CSc2nnc(Cc3cccc4ccccc34)n2C)cc1
> 50 µM (inactive)	Cc1ccc(C(=O)NCCc2nc(-c3ccc4c(c3)OCO4)n[nH]2)cc1F
> 50 µM (inactive)	CC1CCCN(S(=O)(=O)c2cc3cc(F)ccc3oc2=O)C1 (configuration not stated)
44.3 µM	COc1ccc(Cl)cc1NC(=O)Cn1c(=O)cc(C)c2c(C)nn(-c3ccccc3)c21
7.84 µM	CCC(=O)Nc1nc2cc(NC(=O)Nc3cc(C)cc(C)c3)ccc2s1
> 50 µM (inactive)	Cc1cccc2sc(NC(=O)c3nnn(-c4ccc(F)cc4)n3)nc12
> 50 µM (inactive)	O=C(NCc1ccc2c(c1)OCO2)c1ccc(C2SCC(=O)N2Cc2ccco2)cc1 (configuration not stated)
> 50 µM (inactive)	Cc1ccc2nc(-c3cccc(-c4nc5ccc(C)cc5[nH]4)n3)[nH]c2c1
> 50 µM (inactive)	CC1(C)CC2CC(C)(CN2Cc2c(O)ccc3ccccc23)C1 (configuration not stated)
1.51 µM	COc1cccc2cc(C(=O)Nc3nc(-c4ccncc4)cs3)oc12
22.1 µM	Cc1cccc(NC(=O)CN2C(=O)CC(c3ccccc3)S(=O)(=O)c3ccccc32)c1C (configuration not stated)
> 50 µM (inactive)	Oc1ccc(Br)cc1CNc1ccc(F)cc1
> 50 µM (inactive)	Cc1ccc2c(Nc3ccc(CC(=O)O)cc3)c(C(=O)N3CCCC3)cnc2n1
> 50 µM (inactive)	O=C(Cn1c(=O)n(Cc2ccccc2)c(=O)c2ncccc21)NCc1ccccc1Cl
> 50 µM (inactive)	CCOC(=O)c1ccc(NC(=O)COc2cccc3c2CCN(CC)C3=O)cc1
> 50 µM (inactive)	O=C(COc1ccc(S(=O)(=O)N2CCOCC2)cc1)N1CCC(Cc2ccccc2)CC1
> 50 µM (inactive)	COc1cccc(CN2CCc3nc4nc(C)ccc4cc3C2)c1
> 50 µM (inactive)	CC(=O)Nc1ccc(-n2cnc(C(=O)NC(C)c3ccccc3)c2)nc1 (configuration not stated)
